# In PubChem BioAssay (NCI):
#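 Dose response: 5 concentrations. Exposure: 48 h. Format: 96-well plates. Endpoint: linear interpolation; highest concentration if not reached. At the GI50, growth is halved. Definition used: TGI = concentration required for complete inhibition of growth.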
# Columns and labels:
# Assay in all cases: NCI anticancer screen, dose series, 48 h
# [1] = tested on: HT29 colon
# [2] = tested on: HOP-92 NSCLC
# [3] = tested on: RXF 393 renal
# [4] = tested on: PC-3 prostate
# [5] = tested on: MDA-MB-435
# [6] = tested on: SN12C renal
# [7] = tested on: TK-10 renal
# [8] = tested on: UO-31 renal
# [9] = tested on: HCT-116 colon
# [10] = tested on: SF-295 CNS
SMILES,GI50 [1] [µM],TGI [1] [µM],GI50 [2] [µM],TGI [2] [µM],GI50 [3] [µM],TGI [3] [µM],GI50 [4] [µM],TGI [4] [µM],GI50 [5] [µM],TGI [5] [µM],GI50 [6] [µM],TGI [6] [µM],GI50 [7] [µM],TGI [7] [µM],GI50 [8] [µM],TGI [8] [µM],GI50 [9] [µM],TGI [9] [µM],GI50 [10] [µM],TGI [10] [µM]
O=CN1N=C(c2ccc(Cl)cc2)CC1c1cccc(Nc2ccnc3cc(Cl)ccc23)c1 (stereo not given),1.28,7.61,1.45,> 100,1.4,5.87,1.69,> 100,0.377,17.2,3.99,> 100,2.34,21.1,1.7,> 100,1.2,4.02,0.504,9.75
COc1ccc2c(c1)OC1=C(C(=O)OC1)C2c1cc(OC)c(OC)c(OC)c1 (stereo not given),0.345,> 100,3.99,> 100,0.231,0.735,0.391,> 100,0.104,0.358,0.806,> 100,> 67.7,> 100,0.961,> 100,0.535,> 100,0.279,> 100
O=C1c2cc([N+](=O)[O-])ccc2-c2cccc(F)c21,,> 100,,> 100,,> 100,,> 100,,> 100,,> 100,,> 100,,> 100,,> 100,,> 100
